# From paper PMC5587909, “Inhibition of the ATP Synthase Eliminates the Intrinsic Resistance of Staphylococcus aureus towards Polymyxins” (mBio, 2017)
# Bridge positions count the residues as written; N and C are the ends. Square brackets hold non-standard residues; d marks the D form. Peptide text beside a SMILES is read from it. * marks the point of attachment. X1 = CC[C@H](C)CCCCC(=O)*; Dab = NCC[C@H](N)C(=O)O
# Tests used:
# [1] = tested on: S. aureus JE2 (wild type); experiment: microbe, parasite or virus in culture; conditions: Etest on TSA, 37°C, 22 h; wild type S. aureus JE2
# Excerpt: (§1) Staphylococcus aureus is intrinsically resistant to the clinically approved cationic antimicrobial peptides polymyxin B (PMB) and colistin ([1], [16]). […] The MIC for PMB was subsequently determined using Etests for the identified mutants.
# (§2) The strains used in this study include S. aureus strain JE2 (plasmid-cured derivative of USA300 LAC) and all derivative strains within the Nebraska Transposon Mutant Library (NTML), consisting of 1,920 unique transposon mutants with inactivation of nonessential genes ([15]). The bursa aurealis transposon used to create the collection contains the resistance cassette ermB, which confers resistance to erythromycin ([15]). Additionally we used S. aureus SA113 and two derivatives, SA113 ΔdltA ([9]) and SA113 ΔmprF ([10]). All bacterial strains were cultured at 37°C in tryptic soy broth (TSB) or on tryptic soy agar (TSA), with antimicrobial agents added as indicated. Two methods have been employed to determine MICs to various antimicrobial agents. (i) A 2-fold broth microdilution assay in TSB (100 µl) with an initial inoculum of approximately 5 × 10^5 cells/ml was employed to determine the MICs of polymyxin B sulfate (Sigma), gallidermin (Santa Cruz Biotechnology), nisin (Sigma), bacitracin (Sigma), and LL-37 (Isca Biochemicals). […] The MIC was determined upon incubation at 37°C for 22 h. […]
# [2] = tested on: S. aureus JE2 graR transposon mutant (SAUSA300_0645); experiment: microbe, parasite or virus in culture; conditions: Etest on TSA
# Excerpt: as §1, §2
# [3] = tested on: S. aureus JE2 vraF transposon mutant (SAUSA300_0647); experiment: microbe, parasite or virus in culture; conditions: Etest on TSA
# Excerpt: as §1, §2
# [4] = tested on: S. aureus JE2 atpA transposon mutant (SAUSA300_2060); experiment: microbe, parasite or virus in culture; conditions: Etest on TSA
# Excerpt: as §1, §2
# [5] = tested on: S. aureus JE2 vraG transposon mutant (SAUSA300_0648); experiment: microbe, parasite or virus in culture; conditions: Etest on TSA
# Excerpt: as §1, §2
# [6] = tested on: S. aureus JE2 graS transposon mutant (SAUSA300_0646); assay type: cell-based, Staphylococcus aureus; conditions: Etest on TSA
# Excerpt: (§3) Staphylococcus aureus is intrinsically resistant to the clinically approved cationic antimicrobial peptides polymyxin B (PMB) and colistin ([1], [16]). […] The MIC for PMB was subsequently determined using Etests for the identified mutants. Nineteen mutants were confirmed to be at least 2-fold more susceptible than the WT (Table 1). As expected, we identified transposon insertions in graS, graR, vraF, and vraG, corroborating previous work on these determinants in S. aureus in relation to increased PMB susceptibility ([12]).
# (§4) The strains used in this study include S. aureus strain JE2 (plasmid-cured derivative of USA300 LAC) and all derivative strains within the Nebraska Transposon Mutant Library (NTML), consisting of 1,920 unique transposon mutants with inactivation of nonessential genes ([15]). The bursa aurealis transposon used to create the collection contains the resistance cassette ermB, which confers resistance to erythromycin ([15]). Additionally we used S. aureus SA113 and two derivatives, SA113 ΔdltA ([9]) and SA113 ΔmprF ([10]). All bacterial strains were cultured at 37°C in tryptic soy broth (TSB) or on tryptic soy agar (TSA), with antimicrobial agents added as indicated. Two methods have been employed to determine MICs to various antimicrobial agents. (i) A 2-fold broth microdilution assay in TSB (100 µl) with an initial inoculum of approximately 5 × 10^5 cells/ml was employed to determine the MICs of polymyxin B sulfate (Sigma), gallidermin (Santa Cruz Biotechnology), nisin (Sigma), bacitracin (Sigma), and LL-37 (Isca Biochemicals). (ii) An Etest (BioMérieux) performed on TSA plates was employed to determine MICs for polymyxin B, colistin, ciprofloxacin, oxacillin, linezolid, gentamicin, vancomycin, and daptomycin. The MIC was determined upon incubation at 37°C for 22 h. When indicated, the Etest (BioMérieux) was performed on Mueller-Hinton agar plates (cation adjusted for calcium and magnesium).
# [7] = tested on: S. aureus JE2 transposon mutant SAUSA300_1785 (putative ABC transporter protein EcsB); assay type: cell-based, Staphylococcus aureus; conditions: Etest on TSA, 37°C, 22 h
# Excerpt: as §3, §4
# [8] = tested on: S. aureus JE2 transposon mutant SAUSA300_1495 (hypothetical protein); assay type: cell-based, Staphylococcus aureus; conditions: Etest on TSA, 37°C, 22 h
# Excerpt: as §3, §4
# [9] = tested on: S. aureus JE2 lspA transposon mutant (SAUSA300_1089); assay type: cell-based, Staphylococcus aureus; conditions: Etest on TSA, 37°C, 22 h
# Excerpt: as §3, §4
# [10] = tested on: S. aureus JE2 transposon mutant SAUSA300_1802 (hypothetical protein); assay type: cell-based, Staphylococcus aureus; conditions: Etest on TSA, 37°C, 22 h
# Excerpt: as §3, §4
# [11] = tested on: S. aureus SA113 ΔdltA mutant; assay type: cell-based, Staphylococcus aureus; conditions: MIC method not given, 37°C, 22 h
# Excerpt: as §4
smiles,measurement,setting,value
"CC[C@H](C)CCCCC(=O)N[C@@H](CCN)C(=O)N[C@H](C(=O)N[C@@H](CCN)C(=O)N[C@H]1CCNC(=O)[C@H]([C@@H](C)O)NC(=O)[C@H](CCN)NC(=O)[C@H](CCN)NC(=O)[C@H](CC(C)C)NC(=O)[C@@H](Cc2ccccc2)NC(=O)[C@H](CCN)NC1=O)[C@@H](C)O [Polymyxin B, polymyxin B] (X1-[Dab]T[Dab][Dab][Dab][dF]L[Dab][Dab]T; lactam 4-C (inferred); N-terminus assumed)",MIC,[1],128 µg/mL
same,MIC,"[2]; 37°C, 22 h, graR mutant",16 µg/mL
same,fold reduction in MIC / increased sensitivity relative to WT,[2]; graR mutant vs WT JE2,8 fold
same,MIC,"[3]; 37°C, 22 h, vraF mutant",16 µg/mL
same,fold reduction in MIC / increased sensitivity relative to WT,[3]; vraF mutant vs WT JE2,8 fold
same,MIC,"[4]; 37°C, 22 h, atpA mutant",16 µg/mL
same,fold reduction in MIC / increased sensitivity relative to WT,[4]; atpA mutant vs WT JE2,8 fold
same,MIC,"[5]; 37°C, 22 h, vraG mutant",16 µg/mL
same,fold reduction in MIC / increased sensitivity relative to WT,[5]; vraG mutant vs WT JE2,8 fold
same,MIC,"[6]; 37°C, 22 h, graS mutant",24 µg/mL
same,fold reduction in MIC relative to WT,[6]; graS mutant vs WT JE2,8 fold
same,MIC,[7],48 µg/mL
same,MIC,[8],64 µg/mL
same,MIC,[9],64 µg/mL
same,MIC,[10],64 µg/mL
same,MIC,[11],48 µg/mL
